Experimental findings from patent publication US12370235B2, “Synthetic, non-natural antimicrobial peptides inspired by Staphylococcus auricularis delta toxin” (University of Saskatchewan, priority 2021, dated 2025) are described below.

Assay [1] deals with Mannheimia haemolytica ATCC 33393. Kind of assay: MIC, broth dilution. In kind it is cell-based. The settings on record: Table 11; highest concentration 25 μg/mL. Summed up:
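Peptides (95% purity) in 2-fold dilution series were mixed with M. haemolytica diluted to OD 6×10^−4 in cation-adjusted Mueller Hinton broth and incubated standing overnight at 37 °C. MIC was the lowest concentration with no visible growth.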

Another assay has as its system M. luteus ATCC 4698. Kind of assay: MIC, broth dilution. In kind it is cell-based, Micrococcus luteus. The method, boiled down: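 Peptides of 95% purity tested as 2-fold dilution series against bacteria diluted to OD 6×10^−4 in cation-adjusted Mueller Hinton broth. Standing cultures incubated overnight at 37° C; MIC is the lowest concentration with no visible growth.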

Assay [2] concerns Streptococcus dysagalactiae. Kind of assay: MIC, broth dilution. In kind it is cell-based. The settings on record: clinical isolate. The method, then:
(§1) MIC determination. MICs were measured using peptides with 95% purity. For bacterial studies, cation-adjusted Mueller Hinton (MH) broth was used as the growth medium whereas Yeast Peptone Dextrose (YPD; 10 g/L yeast extract, 20 g/L peptone, 20 g/L dextrose) was used for Candida spp. and other yeast. Microorganisms were diluted to an optical density of […] in MH or YPD broth and a 180 μl volume was mixed with 20 μl of peptide arrayed as a 2-fold dilution series in a flat-bottom 96-well microtitre plate. A control was performed using 20 μl of sterile water. Plates were incubated as standing cultures overnight at 37° C.
(§2) Determination of minimum inhibitory concentrations. The MICs were measured for bioactive peptides identified from the initial screen. For bacterial studies, cation-adjusted Mueller Hinton (MH) broth was used as the growth medium whereas YPD was used for C. albicans. Bacterial cultures were diluted to a OD value of 6×10^−4 in MH broth and a 180 μl volume was mixed with 20 μl of peptide arrayed as 2-fold dilution series in a 96-well plate. For the positive control, 20 μl of sterile water was used. Plates were incubated as standing cultures overnight at 37° C. The lowest peptide concentration that resulted no observed microbial growth after an overnight treatment was defined as the MIC.

In another assay the test system is S. scuri. Kind of assay: MIC, broth dilution. In kind it is cell-based. The settings on record: isolate from a healthy dairy cow. The method, then: as §1, §2
The subject of assay [3] is Mannheimia haemolytica (clinical, disease-causing isolate). Kind of assay: MIC, broth dilution. In kind it is cell-based. The following applies: Table 7. The method, then:
as §1, §2

Another assay has as its system Mycoplasma bovis. Kind of assay: MIC, broth dilution. In kind it is cell-based. The method, then: as §1, §2
Assay [4] relates to Enterococcus faecalis ATCC 2912. Kind of assay: MIC, broth dilution. In kind it is cell-based. The method, then:
as §1, §2

In another assay the test system is S. equorum. Kind of assay: MIC, broth dilution. The settings on record: isolate from a healthy dairy cow. In kind it is cell-based. The method, then:
as §1, §2

Assay [5] relates to Pseudomonas aeruginosa ATCC 27853. The assay can be described thus: MIC, broth dilution. In kind it is cell-based. The method, then: as §1, §2
The test system of the next assay is Klebsiella pneumoniae. The assay can be described thus: MIC, broth dilution. In kind it is cell-based. The method, then: as §1, §2
The test system of another assay is Streptococcus agalactiae. The assay can be described thus: MIC, broth dilution. The settings on record: clinical isolate. In kind it is cell-based. The method, then: as §1, §2
The subject of a further assay is S. auricularis. The assay can be described thus: MIC, broth dilution. In kind it is cell-based. The following applies: isolate from a healthy dairy cow. The method, then: as §1, §2
For the next assay, the system named is Pasteurella multocida. Kind of assay: MIC, broth dilution. In kind it is cell-based. The method, then:
as §1, §2

In a further assay the test system is Streptococcus canis. Kind of assay: MIC, broth dilution. In kind it is cell-based. The settings on record: clinical isolate. The method, then: as §1, §2
Another assay relates to S. epidermidis. Kind of assay: MIC, broth dilution. In kind it is cell-based. The following applies: isolate from a healthy dairy cow. The method, then:
as §1, §2

In assay [6] the test system is Streptococcus zooepidermicus. The assay can be described thus: MIC, broth dilution. In kind it is cell-based. The following applies: clinical isolate. The method, then: as §1, §2
For another assay, the system named is Streptococcus equi. Kind of assay: MIC, broth dilution. The following applies: clinical isolate. In kind it is cell-based. The method, then: as §1, §2
The next assay concerns MRSA ATCC 33592. Kind of assay: Three-dimensional NHEK skin model of MRSA infection and treatment. In kind it is cell-based, Staphylococcus aureus. The method, then:
To begin to assess the potential utility of STIP3-29 as a topical antimicrobial agent, the ability of the peptide to control MRSA infections of three-dimensional epidermal skin model prepared from normal, human-derived epidermal keratinocytes (NHEK) in vitro was evaluated. The multilayered and highly differentiated tissue was colonized with MRSA 33952 through a 4 h exposure to 5×10^5 CFU before removing non-adherent cells. It was observed that ˜7×10^3 CFU (−1%) of the MRSA cells colonized the tissues, and that the population expanded by 4-log units in a 16 h period (FIG. 6A). […] Amidation of the C-terminus is correlated with an increase in red blood cell lysis, observed by comparing of STIP3-1 to STIP3-28 and STIP3-3 to STIP3-29 whereas the inclusion of D-amino acids reduced the hemolytic activity.
Three-dimensional tissue infection and treatment. 3D EpiDerm skin tissues (MatTek EPI-200-AFAB; antifungal & antibiotic-free; 9 mm) contained within a plastic insert lined with a permeable 0.4 μm membrane were transferred to a 12 well plate containing dye- and antibiotic assay medium (600 μl per well). […] The number of colonies on each plated were counted and an average CFU/mL was determined for treated and untreated samples. […]

Like-named read-outs stand apart in the source and are kept apart here. Ends that are not written are not given here. Where only a bound is given, the exact number is not on record here.

Take “TVGGLVKWILKTVKKFA-NH2 [STIP3-29, TVGGLVKWILKTVKKFA-NH2]”: the “MIC (μg/mL) M. haemolytica” value in assay [1] amounted to 25 µg/mL. Moreover, the “MIC M. luteus” value with M. luteus ATCC 4698 was found to be 1.56 µg/mL; against M. luteus ATCC 4698 (molar), 0.85 µM. Further, the “fold improvement of activity (MIC)” value in the assay on M. luteus ATCC 4698 (relative to STIP3-1, M. luteus) is 8 fold. In addition, the “MIC” value in assay [2] is 3.13 µg/mL; in the assay on S. scuri, 3.13 µg/mL; in assay [3], 6.25 µg/mL; in assay [4], 12.5 µg/mL; against S. equorum it was 3.13 µg/mL; against Streptococcus agalactiae, 3.13 µg/mL. Also, the “MIC” value against S. auricularis came to 1.56 µg/mL; against Streptococcus canis it was 6.25 µg/mL; in the assay on S. epidermidis, 3.13 µg/mL; in assay [6], 3.13 µg/mL; in the assay with Streptococcus equi, 3.13 µg/mL. Also, the “MIC (μg/ml)” value (in the assay with Mycoplasma bovis; in assay [5]; against Klebsiella pneumoniae; against Pasteurella multocida) was “> (> indicates no inhibition up to 50 μg/ml)” each time. Moreover, the “control of MRSA population on 3D epidermal tissue” value in the assay with MRSA ATCC 33592 (25 μg/ml after colonization, 16 h) is “prevented the expansion of the MRSA population”. Also, the average bacterial density in the assay with MRSA ATCC 33592 (tissues treated with 25 μg/mL (n=6), infected at 7×10^3 CFU/mL, untreated 9×10^7 CFU/mL) is listed as 6×10^3 CFU/mL.
